Source: US9029378B2, “Substituted bicyclic aromatic carboxamide and urea compounds as vanilloid receptor ligands” (Gruenenthal GmbH, priority 2011, dated 2015)

These compounds were tested against T1, vanilloid receptor 1 (VR1/TRPV1 receptor) (Homo sapiens, UniProt Q8NER1) (assay: Functional testing on the vanilloid receptor 1 (FLIPR Ca2+ influx assay, capsaicin)). Conditions: @0.1 μM; Cap=capsaicin; read-out: inhibition (as a percentage), (f) (human being) Cap.
T1 construct: expressed in transfected cells; host or cells: CHO K1
T1 sequence (Q8NER1 whole entry): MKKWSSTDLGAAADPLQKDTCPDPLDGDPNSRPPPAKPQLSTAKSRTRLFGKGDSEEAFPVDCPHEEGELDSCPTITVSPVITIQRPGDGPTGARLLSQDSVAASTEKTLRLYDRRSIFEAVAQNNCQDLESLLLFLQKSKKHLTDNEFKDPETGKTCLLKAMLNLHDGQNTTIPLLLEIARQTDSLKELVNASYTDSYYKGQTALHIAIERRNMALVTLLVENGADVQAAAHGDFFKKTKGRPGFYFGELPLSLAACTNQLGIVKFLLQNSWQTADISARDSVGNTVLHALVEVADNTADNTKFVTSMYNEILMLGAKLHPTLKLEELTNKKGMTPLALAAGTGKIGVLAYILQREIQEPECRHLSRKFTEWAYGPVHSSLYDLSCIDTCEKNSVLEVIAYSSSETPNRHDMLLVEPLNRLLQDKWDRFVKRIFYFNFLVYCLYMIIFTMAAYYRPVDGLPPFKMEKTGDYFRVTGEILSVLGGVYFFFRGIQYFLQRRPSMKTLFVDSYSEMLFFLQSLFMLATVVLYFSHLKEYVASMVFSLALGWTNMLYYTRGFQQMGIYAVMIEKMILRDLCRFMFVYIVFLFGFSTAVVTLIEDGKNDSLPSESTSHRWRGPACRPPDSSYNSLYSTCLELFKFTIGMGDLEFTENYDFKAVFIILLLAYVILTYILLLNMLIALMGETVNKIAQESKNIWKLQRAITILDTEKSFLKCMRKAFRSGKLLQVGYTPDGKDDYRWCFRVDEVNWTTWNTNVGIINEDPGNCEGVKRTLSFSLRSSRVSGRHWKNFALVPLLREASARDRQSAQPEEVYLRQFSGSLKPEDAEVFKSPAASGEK
Format: cell-based, human being
Set-up: key to (f) (human being) Cap: effect in words (agonist / no effect): AG=agonist; NE=no effect
Method: Furthermore, preference may be given to compounds according to the invention that cause a 50 percent displacement of capsaicin, which is present at a concentration of 100 nM, in a FLIPR assay with CHO K1 cells which were transfected with the human VR1 gene at a concentration of less than 2,000 nM, preferably less than 1,000 nM, particularly preferably less than 300 nM, most particularly preferably less than 100 nM, even more preferably less than 75 nM, additionally preferably less than 50 nM, most preferably less than 10 nM.
In the process, the Ca^2+ influx is quantified in the FLIPR assay with the aid of a Ca^2+-sensitive dye (type Fluo-4, Molecular Probes Europe BV, Leiden, the Netherlands) in a fluorescent imaging plate reader (FLIPR, Molecular Devices, Sunnyvale, USA), as described hereinafter.
Pharmacological Methods I. Functional Testing Carried Out on the Vanilloid Receptor 1 (VR1/TRPV1 Receptor) […]
The number of cells in the suspension is set to 3×10^5 per mL and 150 μL of this suspension are in each case introduced into a recess in the cell culture plates coated as described hereinbefore. In the incubator the plates are left for two to three days at 37° C., 5% by volume of CO2 and 95% relative humidity. Subsequently, the cells are loaded with 2 μM of Fluo-4 and 0.01% by volume of Pluronic F127 (Molecular Probes Europe BV, Leiden, the Netherlands) in HBSS buffer (Hank's buffered saline solution, Gibco Invitrogen GmbH, Karlsruhe, Germany) for 30 min at 37° C., washed 3 times with HBSS buffer and after further incubation for 15 minutes at room temperature used for Ca^2+ measurement in a FLIPR assay. The Ca^2+-dependent fluorescence is in this case measured before and after the addition of substances (λex=488 nm, λem=540 nm). Quantification is carried out by measuring the highest fluorescence intensity (FC, fluorescence counts) over time.
The FLIPR protocol consists of 2 substance additions. First the compounds to be tested (10 μM) are pipetted onto the cells and the Ca^2+ influx is compared with the control (capsaicin 10 μM). This provides the result in % activation based on the Ca^2+ signal after the addition of 10 μM of capsaicin (CP). After 5 minutes' incubation, 100 nM of capsaicin are applied and the Ca^2+ influx is also determined.
Desensitising agonists and antagonists lead to suppression of the Ca^2+ influx. The % inhibition is calculated compared to the maximum achievable inhibition with 10 μM of capsazepine. Triple analyses (n=3) are carried out and repeated in at least 3 independent experiments (N=4). Starting from the percentage displacement caused by different concentrations of the compounds to be tested of general formula I, IC50 inhibitory concentrations which cause a 50-percent displacement of capsaicin were calculated. Ki values for the test substances were obtained by conversion by means of the Cheng-Prusoff equation (Cheng, Prusoff; Biochem. Pharmacol. 22, 3099-3108, 1973).
The affinity of the compounds of to the invention for the vanilloid receptor 1 (VR1/TRPV1 receptor) was determined as described hereinbefore (pharmacological method I). The compounds of the invention display outstanding affinity to the VR1/TRPV1 receptor (Table 2). In Table 2 the abbreviations below have the following meanings: • Cap=capsaicin • AG=agonist • NE=no effect
The value after the “@” symbol indicates the concentration at which the inhibition (as a percentage) was respectively determined.

`CC1CCN(c2nc(C(F)(F)F)ccc2CNC(=O)Nc2cccc3cc[nH]c23)CC1` [Example 36, 1-(1H-Indol-7-yl)-3-((2-(4-methylpiperidin-1-yl)-6-(trifluoromethyl)pyridin-3-yl)methyl)urea] was tested, and the inhibition at 0.1 µM was 37%.

Same assay, conditions: @5 μM; Cap=capsaicin; read-out: inhibition (as a percentage), (f) (human being) Cap

In the case of `O=C(NCc1ccc(C(F)(F)F)nc1SC1CCCCC1)Nc1ccc2ccccc2n1` [Example 11, 1-((2-(Cyclohexylthio)-6-(trifluoromethyl)pyridin-3-yl)methyl)-3-(quinolin-2-yl)urea], the inhibition at 5 µM is reported as 19%.

Same assay, conditions: Cap=capsaicin

For `CC(=O)Nc1nc2cc(NC(=O)NCc3ccc(C(F)(F)F)nc3N3CCC(C)CC3)ccc2s1` [Example 31, N-(5-(3-((2-(4-methylpiperidin-1-yl)-6-(trifluoromethyl)pyridin-3-yl)methyl)ureido)benzo[d]thiazol-2-yl)acetamide], the “(f) (human being) Cap: effect in words (agonist / no effect)” value was “AG”.

Same assay, conditions: Cap=capsaicin (100 nM); Ki from IC50 by Cheng-Prusoff equation; read-out: (f) Ki (human being) [nM] Cap

In order of rising Ki:
1. CC1CCN(c2nc(C(C)(C)C)ccc2CNC(=O)Nc2cccc3cnccc23)CC1 [Example 76, 1-((6-Tert-butyl-2-(4-methylpiperidin-1-yl)pyridin-3-yl)methyl)-3-(isoquinolin-5-yl)urea]  0.1 nM
2. CC1CCN(c2nc(C(F)(F)F)ccc2CNC(=O)Nc2cccc3c2cnn3C)CC1 [Example 46, 1-(1-Methyl-1H-indazol-4-yl)-3-((2-(4-methylpiperidin-1-yl)-6-(trifluoromethyl)pyridin-3-yl)methyl)urea]  0.5 nM
3. CC1CCN(c2nc(C(C)(C)C)ccc2CNC(=O)Nc2cccc3ncccc23)CC1 [Example 64, 1-((6-Tert-butyl-2-(4-methylpiperidin-1-yl)pyridin-3-yl)methyl)-3-(quinolin-5-yl)urea]  1 nM
4. COc1nc(Cl)cc2c(NC(=O)NCc3ccc(C(F)(F)F)nc3N3CCC(C)CC3)cccc12 [Example 82, 1-(3-Chloro-1-methoxyisoquinolin-5-yl)-3-((2-(4-methylpiperidin-1-yl)-6-(trifluoromethyl)pyridin-3-yl)methyl)urea]  1 nM
5. Cc1nccc2c(NC(=O)NCc3ccc(C(F)(F)F)nc3N3CCC(C)CC3)cccc12 [Example 78, 1-(1-Methylisoquinolin-5-yl)-3-((2-(4-methylpiperidin-1-yl)-6-(trifluoromethyl)pyridin-3-yl)methyl)urea]  1 nM
6. CC1CCN(c2nc(C(C)(C)C)ccc2CNC(=O)Nc2cc(F)cc3[nH]ncc23)CC1 [Example 52, 1-((6-Tert-butyl-2-(4-methylpiperidin-1-yl)pyridin-3-yl)methyl)-3-(6-fluoro-1H-indazol-4-yl)urea]  2 nM
7. CCCCOc1nc(C(F)(F)F)ccc1CNC(=O)Nc1cccc2ncccc12 [Example 67, 1-((2-Butoxy-6-(trifluoromethyl)pyridin-3-yl)methyl)-3-(quinolin-5-yl)urea]  2 nM
8. Cc1[nH]c2c(NC(=O)NCc3ccc(C(F)(F)F)nc3N3CCC(C)CC3)cccc2c1C [Example 37, 1-(2,3-Dimethyl-1H-indol-7-yl)-3-((2-(4-methylpiperidin-1-yl)-6-(trifluoromethyl)pyridin-3-yl)methyl)urea]  4 nM
9. CC1CCN(c2nc(C(F)(F)F)ccc2CNC(=O)Nc2ccc3ncsc3c2)CC1 [Example 32, 1-(Benzo[d]thiazol-6-yl)-3-((2-(4-methylpiperidin-1-yl)-6-(trifluoromethyl)pyridin-3-yl)methyl)urea]  4 nM
10. CC1CCN(c2nc(C(F)(F)F)ccc2CNC(=O)Nc2cccc3c2ccn3C)CC1 [Example 40, 1-(1-Methyl-1H-indol-4-yl)-3-((2-(4-methylpiperidin-1-yl)-6-(trifluoromethyl)pyridin-3-yl)methyl)urea]  5 nM
11. CC1CCN(c2nc(C(F)(F)F)ccc2CNC(=O)Nc2cccc3[nH]c(C(C)(C)C)cc23)CC1 [Example 43, 1-(2-Tert-butyl-1H-indol-4-yl)-3-((2-(4-methylpiperidin-1-yl)-6-(trifluoromethyl)pyridin-3-yl)methyl)urea]  8 nM
12. 1-(6,7-Dihydro-5H-cyclopenta[b]pyridin-3-yl)-3-((2-(4-methylpiperidin-1-yl)-6-(trifluoromethyl)pyridin-3-yl)methyl)urea [Example 1]  9 nM
13. Cc1nc2cc(NC(=O)NCc3ccc(C(F)(F)F)nc3N3CCC(C)CC3)ccc2s1 [Example 30, 1-(2-Methylbenzo[d]thiazol-5-yl)-3-((2-(4-methylpiperidin-1-yl)-6-(trifluoromethyl)pyridin-3-yl)methyl)urea]  22 nM
14. CC1CCN(c2nc(C(F)(F)F)ccc2CNC(=O)Nc2ccc3cc[nH]c3c2)CC1 [Example 22, 1-(1H-Indol-6-yl)-3-((2-(4-methylpiperidin-1-yl)-6-(trifluoromethyl)pyridin-3-yl)methyl)urea]  24 nM
15. CC1CCN(c2nc(C(F)(F)F)ccc2CNC(=O)C(C)c2cnc3ccccc3c2)CC1 (centres unmarked) [Example 14, N-((2-(4-Methylpiperidin-1-yl)-6-(trifluoromethyl)pyridin-3-yl)methyl)-2-(quinolin-3-yl)propanamide]  44 nM
16. COc1ccc(NC(=O)NCc2ccc(C(F)(F)F)nc2N2CCC(C)CC2)c2cnccc12 [Example 88, 1-(5-Methoxyisoquinolin-8-yl)-3-((2-(4-methylpiperidin-1-yl)-6-(trifluoromethyl)pyridin-3-yl)methyl)urea]  62 nM
17. Cc1ccc2cc(NC(=O)NCc3ccc(C(F)(F)F)nc3N3CCC(C)CC3)ccc2n1 [Example 70, 1-((2-(4-Methylpiperidin-1-yl)-6-(trifluoromethyl)pyridin-3-yl)methyl)-3-(2-methylquinolin-6-yl)urea]  68 nM
